Type in all cases: cell-based, human
In assay [1] the test system is HSC-3 cells. Put plainly: Flow cytometric detection of apoptosis (Annexin V/PI). Particulars: HSC-3, 24 h; cisplatin 50 µM, MPMs 5-20 µM. The method, then: HSC-3 and UT-SCC-24A cells were seeded, 300,000 cells/well, in 6-well plates and left to adhere overnight. The media was then removed and replaced by 2 ml complete DMEM/F-12 containing 5, 7.5, 10 or 20 µM of MPM-2:0, MPM-6:0, MPM-3:2 or MPM-4:2, or 50 µM cisplatin. Some cells were left untreated. The cells were then incubated for 24 h. Next, the cell supernatants were collected before the cells were trypsinized and spun down with the supernatants. For the staining, an apoptosis detection kit was used (#88-8005-74, Thermo Fisher Scientific). The cells were washed once in PBS and once in 1x binding buffer before being incubated with FITC labeled Annexin V diluted 1:25 in 1 × binding buffer for 15 min. Next the cells were washed in 1 × binding buffer before being incubated with PI diluted 1:100 in 1 × binding buffer for at least 5 min before analysis was performed on the LSR Fortessa (BD Biosciences, CA, United States). Analyses were performed in FlowJo™ v.10 (https://www.flowjo.com/).
Background: In flow cytometry, cells or beads pass a laser one at a time.

Assay [2] relates to HSC-3 cells. Put plainly: Live cell apoptosis assay (caspase 3/7, proliferation). Particulars: HSC-3, 24 h; MPMs 5 or 10 µM, cisplatin 10 µM. The procedure:
A black-walled 96-well plate (#6005182, PerkinElmer, Waltham, MA, United States) was coated with 50 µl myogel (0.5 mg/ml) per well. The next day, HSC-3 and UT-SCC-24A cells were stained with CellTrace Far Red (Invitrogen, Carlsbad, CA, USA) by resuspending 500,000 cells in 500 µl PBS and adding 0.5 µl of the dye before incubating the cells at 37°C for 20 min. Next, 2.5 ml of complete media was added to the cells, and they were incubated for another 5 min. The cells were then centrifuged and resuspended in complete media. The media remaining in the wells of the 96-well plate after myogel coating was removed and the cells were seeded with 1,000 cells/well in 100 µl of media. The cells were left to adhere overnight, and the following day, the media was replaced with 100 µl of media containing the Incucyte® caspase-3/7 green dye for apoptosis (Sartorius, Göttingen, Germany) (diluted 1:1,000), as well as 5 or 10 µM of the MPMs or 10 µM cisplatin. Control wells only contained media and the caspase-3/7 green dye. The plate was placed in the Incucyte S3 (Sartorius) and imaged at ×10 magnification every 2 hours for 24 h in total. Each condition had triplicate wells, and four images were taken per well. The experiment was conducted three times. The Incucyte software was used to analyze the area of red fluorescence (proliferation) and number of green and red objects (apoptotic cells).

In assay [3] the test system is HSC-3 cells. Put plainly: MTS viability assay with bafilomycin A1 and z-VAD-FMK. Particulars: HSC-3, 24 h; cisplatin 50 µM, MPM-2:0/MPM-6:0 5 µM, MPM-3:2/MPM-4:2 10 µM. The procedure: HSC-3 and UT-SCC-24A cells were seeded, 10,000 cells/well, in flat bottom 96-well plates and left to adhere overnight. The supernatants were then removed and replaced by 50 µl of complete DMEM/F-12 ± 100 nM BafA1 (#196000, Sigma-Aldrich, St. Louis, MO, United States) or 50 µM z-VAD-FMK (#219007, Sigma-Aldrich). The plate was then incubated for 1 hour before another 50 µl of complete DMEM/F-12 ± 100 nM BafA1 or 50 µM z-VAD-FMK as well as the MPMs or cisplatin was added. The final concentration of cisplatin was 50 µM and for the MPMs it was 5 or 10 µM for MPM-2:0 and MPM-6:0, and 10 or 20 µM for MPM-3:2 and MPM-4:2, for HSC-3 and UT-SCC-24A cells, respectively. 100 μl of media ± 1% Triton X-100 served as […]. The cells were incubated for 24 h before 20 µl of MTS reagent (CellTiter 96® Aqueous One Solution, Promega, Madison, WI, United States) was added to each well. The plate was then incubated for one more hour before absorbance was measured at 490 nm on a VersaMaxTM Microplate reader (Molecular Devices, San Jose, CA, United States). Viability was calculated using the following formula: %=Abs treated sample−Abs positive control/Abs negative control−Abs positive control x 100
At least three independent experiments were performed, with triplicate wells in each experiment.

The test system of assay [4] is UT-SCC-24A cells. Put plainly: Western blot for extracellular HMGB1. Particulars: 24 h, supernatant. The procedure: Detection of HMGB1 in the supernatant of MPM treated HSC-3 and UT-SCC-24A cells was performed as previously described ([von Hofsten et al., 2022]). Briefly, HSC-3 and UT-SCC-24A cells were seeded, 100,000 cells/well in 12-well plates and left to adhere overnight. The following day, the media was removed and replaced with media containing either 50 µM cisplatin, 5 or 10 µM MPM-2:0 or MPM-6:0, or 10 or 20 µM MPM-3:2 or MPM-4:2. The cells were incubated for 24 h before supernatants were collected and centrifuged to remove debris. Supernatant samples were mixed with DTT (final concentration 50 mM) and sample buffer before being boiled for 5 min and loaded on a NuPAGE® 10% Bis–Tris Gel (Thermo Fisher Scientific) before being electro-transferred to a polyvindiline dilfluoride (PVDF) immobilon-P membrane (Merck, Rahway, NJ, United States). The membrane was blocked for 1 h with 5% non-fat dry milk in TBST and then incubated overnight at 4°C with the primary antibody targeting HMGB1 (#ab18256, Abcam) diluted 1:1,000 in TBST 5% non-fat dry milk. Next, the membrane was washed three times in TBST and incubated with an HRP-conjugated goat anti-rabbit secondary antibody (#4050-05, Southern Biotech, Birmingham, AL, United States) diluted 1:2000 in TBST 5% non-fat dry milk at room temperature for 1 h. […]
(In general: A western blot detects proteins with antibodies after separation by electrophoresis.)

Molecules are shown by their SMILES.

`N.N.[Cl][Pt][Cl]` [Cisplatin, cisplatin, reference compound]: the “apoptotic (Annexin V+/PI−) population (in words)” value in assay [1] is “small, but clearly apoptotic (Annexin V+/PI−) population”. Moreover, in assay [2], the “activation of caspase 3/7 / apoptosis (in words)” value is listed as “only induced apoptosis in a minority of HSC-3 cells” and the “proliferation (area of red fluorescence, in words)” value was “inhibited proliferation in HSC-3 cells”. For the same compound, the “viability in the presence of BafA1 (100 nM) or z-VAD-FMK (50 µM) (in words)” value in assay [3] is reported as “z-VAD-FMK seemed to have some protective effects against cisplatin for both cell lines, while BafA1 had the opposite effect”.

Turning to `NCCN1C(=O)N(CCN)C(=O)C(CCCc2ccccc2)(CCCc2ccccc2)C1=O` [MPM-2:0], the “release of HMGB1 (in words)” value in assay [4] was “statistically significant”.

On to `NCCCCCCN1C(=O)N(CCCCCCN)C(=O)C(CCCc2ccccc2)(CCCc2ccccc2)C1=O` [MPM-6:0], for which, in assay [3], the “viability in the presence of BafA1 (100 nM) or z-VAD-FMK (50 µM) (in words)” value was “z-VAD-FMK increase viability more than BafA1”. Also, in assay [4], the “release of HMGB1 (in words)” value is “statistically significant”.

For the origin of these results see article PMC10098121, “Amphipathic barbiturates as marine product mimics with cytolytic and immunogenic effects on head and neck squamous cell carcinoma cell lines” (Frontiers in Pharmacology, 2023).
